In brackets after ≈: the same amount, converted by molar mass. Entries after “also recorded” stand apart in the source; their conditions may differ. Where two headings read alike, the source gives them in different places.
What was measured:
[1] = human liver microsomes; cited from earlier work
[2] = system: human colorectal (HRT-18) cells; assay: MTS cytotoxicity assay; type: cell-based; details: for Non-toxic up to (concentration): tested 5-40 μg/mL
[3] = system: E. faecalis NR-31975; assay: UDP-N-acetylmuramyl-pentapeptide accumulation; type: cell-based, Enterococcus faecalis; details: 10 × MIC, 30 minutes
[4] = polar aminoguanidine headgroup; source not stated; cited from earlier work
[5] = system: Caco-2; details: polarized cell monolayer; ref not given; cited from earlier work
[6] = system: E. faecalis; assay: MIC against E. faecalis isolates; details: Enterococcus faecalis
[7] = system: E. coli ΔtolC; assay: Bacterial Cytological Profiling; type: cell-based, Escherichia coli; details: 5 × MIC (25 μg/mL), two hours
[8] = system: C. elegans AU37; type: in vivo, Caenorhabditis elegans; details: 20 μg/mL, 24 hours exposure
[9] = system: Gram-negative pathogens; assay: MIC against Gram-negative pathogens
[10] = biological target: human FPPS (HsFPPS) (Homo sapiens, UniProt P14324); assay: HsFPPS inhibition assay; type: biochemical; details: data not shown
[11] = system: vancomycin-resistant Enterococcus faecium ATCC 700221; assay: Time-kill analysis; type: cell-based; details: 4 × MIC, 24 hour incubation, 37 °C
[12] = system: vancomycin-resistant S. aureus (VRSA); details: cited from earlier work
[13] = system: vancomycin-resistant Enterococcus faecalis HM-201; assay: Time-kill analysis; type: cell-based; details: 4 × MIC, 24 hour incubation, 37 °C
[14] = system: vancomycin-resistant Enterococcus faecalis ATCC 51299; assay: Multi-step resistance selection; type: cell-based; details: one-fold increase = MIC x → 2x
[15] = system: E. faecalis and E. faecium; assay: MIC and MBC against strains of E. faecalis and E. faecium; type: cell-based
[16] = system: vancomycin-resistant Enterococcus faecium HM-968; assay: Multi-step resistance selection; type: cell-based; details: one-fold increase = MIC x → 2x
[17] = system: MRSA; details: topical; cited from earlier work
[18] = system: vancomycin-resistant Enterococcus faecalis HM-201; assay: C. elegans VRE infection model; type: in vivo, Caenorhabditis elegans; details: 20 μg/mL, treated for 18 hours, relative to untreated worms
[19] = system: E. faecium ATCC 700221; assay: Re-sensitization of VRE to vancomycin; type: cell-based, Enterococcus faecium; details: for Fold-improvement in MIC of vancomycin: with ½ × MIC Compound 1
[20] = system: E. faecalis HM-934; assay: Re-sensitization of VRE to vancomycin; type: cell-based, Enterococcus faecalis; details: for MIC: Enterococcus faecalis; for Fold-improvement in MIC of vancomycin: with ½ × MIC Compound 1
[21] = system: E. faecalis HM-201; assay: Re-sensitization of VRE to vancomycin; type: cell-based, Enterococcus faecalis; details: for MIC: Enterococcus faecalis; for Fold-improvement in MIC of vancomycin: with ½ × MIC Compound 1
[22] = system: E. faecium HM-968; assay: Re-sensitization of VRE to vancomycin; type: cell-based, Enterococcus faecium; details: for MIC: Enterococcus faecium; for Fold-improvement in MIC of vancomycin: with ½ × MIC Compound 1
[23] = system: E. faecalis ATCC 51299; assay: Checkerboard assay; type: cell-based, Enterococcus faecalis; details: antibiotic in combination with compound 1
[24] = system: E. faecium (ATCC 700221); assay: Re-sensitization of VRE to gentamicin; type: cell-based, Enterococcus faecium; details: sub-inhibitory concentration of 1; data not shown
[25] = system: E. faecalis (ATCC 51299); assay: Re-sensitization of VRE to gentamicin; type: cell-based, Enterococcus faecalis; details: sub-inhibitory concentration of 1; data not shown
[26] = system: VRE; details: administered orally, phase II clinical trial; cited from earlier work
[27] = Gram-negative pathogens of Table 1, compound alone
[28] = strains of E. faecalis and E. faecium
[29] = K. pneumoniae, P. aeruginosa and E. coli, tested alone
[30] = K. pneumoniae, P. aeruginosa and E. coli, with sub-inhibitory colistin

Chain of human FPPS (HsFPPS) (P14324 whole entry): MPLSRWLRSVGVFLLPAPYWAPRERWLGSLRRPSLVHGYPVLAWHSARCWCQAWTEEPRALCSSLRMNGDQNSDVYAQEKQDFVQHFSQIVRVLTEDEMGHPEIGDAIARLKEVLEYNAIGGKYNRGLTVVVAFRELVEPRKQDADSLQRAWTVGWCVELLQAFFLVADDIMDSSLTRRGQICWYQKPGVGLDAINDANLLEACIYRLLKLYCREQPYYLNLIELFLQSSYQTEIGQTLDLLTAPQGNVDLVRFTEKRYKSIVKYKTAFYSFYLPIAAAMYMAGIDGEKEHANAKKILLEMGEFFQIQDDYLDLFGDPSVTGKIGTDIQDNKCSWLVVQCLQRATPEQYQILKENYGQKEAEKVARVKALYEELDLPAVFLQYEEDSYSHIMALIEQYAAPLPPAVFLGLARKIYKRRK

Compound: CCCCc1ccc(-c2nc(C)c(/C(C)=N/NC(=N)N)s2)cc1 [Compound 1]
- Affinity to hepatic microsomal enzymes [1]: high affinity to hepatic microsomal enzymes
- Non-toxic up to (concentration) ([2]; 24 hours incubation): 20 µg/mL
- Non-toxic up to (concentration) ([2]; two hours incubation): 20 µg/mL
- UDP-N-acetylmuramyl pentapeptide accumulation [3]: large increases
- pKa [4]: ~ 7
- Caco-2 permeability, apical to basolateral [5]: limited ability to cross from the apical to basolateral surface
- MIC [6]: 1 to 8 µg/mL (≈ 3.04 to 24.3 µM)
- Cytological effect [7]: cells lysed and formed spheroplasts
- Percent viable worms [8]: All worms survived
- MIC [9, 27]: 8 to 64 µg/mL (≈ 24.3 to 194 µM)
- Inhibition of FPPS [10]: no inhibition
- Time-kill result (complete eradication of bacteria) [11]: within two hours
- Resensitization of VRSA to vancomycin [12]: resensitizes; also recorded: capable of resensitizing
- Time-kill result (complete eradication of bacteria) [13]: within two hours
- Shift in MIC over 14 serial passages [14]: one-fold increase
- MBC relative to MIC [15, 28]: equal to or one-fold higher
- Shift in MIC over 14 serial passages [16]: no shift in the MIC

Compound: C/C(=N\NC(=N)N)c1sc(-c2ccc(-c3ccccc3)cc2)nc1C [Compound 2]
- Toxic at (concentration) ([2]; 24 hours incubation): 40 µg/mL
- Non-toxic up to (concentration) ([2]; 24 hours incubation): 20 µg/mL
- Non-toxic up to (concentration) ([2]; two hours incubation): 40 µg/mL
- pKa [4]: ~ 7
- MIC [6]: 16 µg/mL (≈ 45.8 µM)
- MIC [9, 27]: > 128 µg/mL
- MIC [9, 29]: > 128 µg/mL
- MIC [9, 30]: 1 to 4 µg/mL (≈ 2.86 to 11.4 µM)
- Time-kill result (complete eradication of bacteria) [11]: not capable of completely eradicating the bacteria
- Resensitization of VRSA to vancomycin [12]: capable of resensitizing
- Time-kill result (complete eradication of bacteria) [13]: within two hours
- Shift in MIC over 14 serial passages [14]: a one-fold increase in MIC was observed after the sixth passage and an additional two-fold increase was observed after the eleventh passage
- MBC relative to MIC ([15]; against E. faecium): more than four-fold higher
- Shift in MIC over 14 serial passages [16]: one-fold increase

Compound: CCCCC#Cc1ccc(-c2nc(C)c(/C(C)=N/NC(=N)N)s2)cc1 [Compound 3]
- Toxic at (concentration) ([2]; 24 hours incubation): 40 µg/mL
- Non-toxic up to (concentration) ([2]; 24 hours incubation): 20 µg/mL
- Non-toxic up to (concentration) ([2]; two hours incubation): 40 µg/mL
- Reduction of MRSA burden in infected skin wounds [17]: 96%
- pKa [4]: ~ 7
- Caco-2 permeability, apical to basolateral [5]: limited ability to cross from the apical to basolateral surface
- MIC [6]: 1 to 8 µg/mL (≈ 2.83 to 22.6 µM)
- MIC [9, 27]: > 128 µg/mL
- MIC [9, 29]: > 128 µg/mL
- MIC [9, 30]: 1 to 4 µg/mL (≈ 2.83 to 11.3 µM)
- Time-kill result (complete eradication of bacteria) [11]: four hours
- Time-kill result (complete eradication of bacteria) [13]: within two hours
- Shift in MIC over 14 serial passages [14]: one-fold increase
- MBC relative to MIC [15, 28]: equal to or one-fold higher
- Shift in MIC over 14 serial passages [16]: no shift in the MIC

Compound: CC[C@H]1OC(=O)[C@H](C)[C@@H](O[C@H]2C[C@@](C)(OC)[C@@H](O)[C@H](C)O2)[C@H](C)[C@@H](O[C@@H]2O[C@H](C)C[C@H](N(C)C)[C@H]2O)[C@](C)(O)C[C@@H](C)C(=O)[C@H](C)[C@@H](O)[C@]1(C)O [Erythromycin, reference compound]
- MIC [9]: > 128 µg/mL
- MIC [9, 30]: 0.5 to 1 µg/mL (≈ 0.681 to 1.36 µM)

Compound: CC(=O)NC[C@H]1CN(c2ccc(N3CCOCC3)c(F)c2)C(=O)O1 [Linezolid, reference compound]
- Time-kill result (complete eradication of bacteria) [11]: not able to generate a 10^3 × reduction in VRE CFU over 24 hours
- Decrease in VRE burden in infected worms [18]: unable to reduce the burden of VRE
- Time-kill result (complete eradication of bacteria) [13]: not able to generate a 10^3 × reduction in VRE CFU over 24 hours
- Shift in MIC over 14 serial passages [14]: No increase in MIC
- MBC relative to MIC [15, 28]: more than four-fold higher
- Shift in MIC over 14 serial passages [16]: one-fold increase

Compound: CN[C@H](CC(C)C)C(=O)N[C@H]1C(=O)N[C@@H](CC(N)=O)C(=O)N[C@H]2C(=O)N[C@H]3C(=O)N[C@H](C(=O)N[C@H](C(=O)O)c4cc(O)cc(O)c4-c4cc3ccc4O)[C@H](O)c3ccc(c(Cl)c3)Oc3cc2cc(c3O[C@@H]2O[C@H](CO)[C@@H](O)[C@H](O)[C@H]2O[C@H]2C[C@](C)(N)[C@H](O)[C@H](C)O2)Oc2ccc(cc2Cl)[C@H]1O [Vancomycin]
- MIC ([19]; Enterococcus faecium, ATCC700221, read-out: MIC of vancomycin, vancomycin alone): 256 µg/mL
- Fold-improvement in MIC of vancomycin [19]: 256-fold
- Fold-improvement in MIC of vancomycin ([19]; listed as vancomycin): 256 fold
- MIC ([20]; HM934, read-out: MIC of vancomycin, + ½ × MIC Compound 1): > 128 µg/mL
- MIC ([20]; HM934, read-out: MIC of vancomycin, vancomycin alone): > 512 µg/mL
- Fold-improvement in MIC of vancomycin [20]: No change
- Fold-improvement in MIC of vancomycin ([20]; listed as vancomycin): no resensitization
- UDP-N-acetylmuramyl pentapeptide accumulation [3]: large increases
- MIC ([21]; HM201, read-out: MIC of vancomycin, + ½ × MIC Compound 1): > 128 µg/mL
- MIC ([21]; HM201, read-out: MIC of vancomycin, vancomycin alone): 512 µg/mL
- Fold-improvement in MIC of vancomycin [21]: No change
- Fold-improvement in MIC of vancomycin ([21]; listed as vancomycin): no resensitization
- MIC ([22]; HM968, read-out: MIC of vancomycin, + ½ × MIC Compound 1): > 128 µg/mL
- MIC ([22]; HM968, read-out: MIC of vancomycin, vancomycin alone): 1020 µg/mL
- Fold-improvement in MIC of vancomycin [22]: No change
- Fold-improvement in MIC of vancomycin ([22]; listed as vancomycin): no resensitization

Compound: CC1(C)S[C@@H]2[C@H](NC(=O)[C@H](N)c3ccccc3)C(=O)N2[C@H]1C(=O)O [ampicillin]
- FIC index [23]: 3.00

Compound: O=C(O)c1cn(C2CC2)c2cc(N3CCNCC3)c(F)cc2c1=O [ciprofloxacin]
- FIC index [23]: 0.50

Compound: C[C@H]1c2cccc(O)c2C(=O)C2=C(O)[C@]3(O)C(=O)C(C(N)=O)=C(O)[C@@H](N(C)C)[C@@H]3[C@@H](O)[C@@H]21 [doxycycline]
- FIC index [23]: 2.00

Compound: CNC(C)C1CCC(N)C(OC2C(N)CC(N)C(OC3OCC(C)(O)C(NC)C3O)C2O)O1 (stereo not shown) [gentamicin]
- Resensitization to gentamicin [24]: unable to resensitize
- Resensitization to gentamicin [25]: unable to resensitize

Compound: Ramoplanin
- Patients with suppressed gastrointestinal colonization of VRE [26]: up to 90%
